Measurements reported in US8497278B2, “Imidazo[1,2-a]pyridine compounds” (priority 2008, dated 2013).

What was measured:
[1] = test system: central benzodiazepine receptors; assay: Central benzodiazepine receptor binding (test of Speth et al.); conditions: 1000 nM of the compound
How it was run: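 Radioligand binding by the Speth et al. method. Specific binding is total minus nonspecific binding, the latter measured with excess unlabelled ligand. Compounds screened at 1.0E-09, 1.0E-07 and 1.0E-05 M in single determination; values given as percent inhibition at 1000 nM compound.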

[2] = biological target: T1, α1 subtype containing GABA-A receptors (Homo sapiens, UniProt P14867+P18507); assay: Two-electrode voltage clamp electrophysiology in Xenopus oocytes, potentiation of GABA EC20 response, α1; assay type: cell-based; conditions: 100 nM compound; for activation at 0.1 µM: read-out: Percentage of potentiation alpha1
T1 construct: expressed in transfected cells; host or cells: Xenopus laevis oocytes, cRNA injected
How it was run: (§1)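 Xenopus oocytes expressing human α1, α2, α3 or α5 with β3 and γ2L subunits were voltage-clamped at −80 mV in ND96, pH 7.5. Potentiation of the GABA EC20 (60 μM) response by test compounds at 100 nM was measured, with one compound per oocyte. Oocytes showing low current or poor γ2L incorporation, judged by 1 μM chlordiazepoxide response, were excluded.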

[3] = biological target: T2, α2 subtype containing GABA-A receptors (Homo sapiens, UniProt P18507+P47869); assay: Two-electrode voltage clamp electrophysiology in Xenopus oocytes, potentiation of GABA EC20 response, α2; assay type: cell-based; conditions: 100 nM compound; for activation at 0.1 µM: read-out: Percentage of potentiation alpha2
T2 construct: expressed in transfected cells; host or cells: Xenopus laevis oocytes, cRNA injected
How it was run: as §1

T2 sequence (P47869 29-451): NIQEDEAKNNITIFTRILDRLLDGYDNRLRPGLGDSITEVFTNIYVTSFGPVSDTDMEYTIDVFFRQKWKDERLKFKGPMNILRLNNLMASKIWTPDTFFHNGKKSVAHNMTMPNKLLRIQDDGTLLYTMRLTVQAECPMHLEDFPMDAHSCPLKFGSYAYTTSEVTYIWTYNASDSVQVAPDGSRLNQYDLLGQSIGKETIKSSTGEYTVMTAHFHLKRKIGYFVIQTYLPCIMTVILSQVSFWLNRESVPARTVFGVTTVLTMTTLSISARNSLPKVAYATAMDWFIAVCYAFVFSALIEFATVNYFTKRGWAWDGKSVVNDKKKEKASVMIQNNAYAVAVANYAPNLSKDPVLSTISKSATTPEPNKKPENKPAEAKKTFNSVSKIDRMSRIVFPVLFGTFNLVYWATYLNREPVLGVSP
T2 sequence (P28472 26-473 partner): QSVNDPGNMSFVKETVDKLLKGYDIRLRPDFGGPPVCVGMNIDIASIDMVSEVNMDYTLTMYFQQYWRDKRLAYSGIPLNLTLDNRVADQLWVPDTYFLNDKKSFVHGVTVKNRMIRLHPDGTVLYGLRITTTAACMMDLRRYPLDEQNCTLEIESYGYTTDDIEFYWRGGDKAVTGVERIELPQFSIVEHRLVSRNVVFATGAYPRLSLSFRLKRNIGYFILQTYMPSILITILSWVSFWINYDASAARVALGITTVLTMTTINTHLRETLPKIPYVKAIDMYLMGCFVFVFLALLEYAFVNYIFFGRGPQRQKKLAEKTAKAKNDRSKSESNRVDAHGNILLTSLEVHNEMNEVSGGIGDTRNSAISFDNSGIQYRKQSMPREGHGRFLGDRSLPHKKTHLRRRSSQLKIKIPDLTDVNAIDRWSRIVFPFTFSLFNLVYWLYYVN
T2 sequence (P18507 40-475): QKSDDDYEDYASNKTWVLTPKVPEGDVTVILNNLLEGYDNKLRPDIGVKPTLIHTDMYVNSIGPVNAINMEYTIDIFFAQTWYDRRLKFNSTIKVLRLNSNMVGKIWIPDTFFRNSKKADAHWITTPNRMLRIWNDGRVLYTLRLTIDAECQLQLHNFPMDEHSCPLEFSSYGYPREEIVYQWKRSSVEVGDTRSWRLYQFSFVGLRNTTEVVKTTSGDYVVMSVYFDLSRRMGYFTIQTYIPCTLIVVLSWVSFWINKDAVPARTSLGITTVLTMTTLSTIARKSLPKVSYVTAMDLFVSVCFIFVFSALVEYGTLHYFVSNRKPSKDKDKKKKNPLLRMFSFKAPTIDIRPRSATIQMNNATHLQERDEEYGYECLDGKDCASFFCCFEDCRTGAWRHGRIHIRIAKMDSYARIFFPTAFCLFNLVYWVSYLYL
T1 sequence (P14867 28-456): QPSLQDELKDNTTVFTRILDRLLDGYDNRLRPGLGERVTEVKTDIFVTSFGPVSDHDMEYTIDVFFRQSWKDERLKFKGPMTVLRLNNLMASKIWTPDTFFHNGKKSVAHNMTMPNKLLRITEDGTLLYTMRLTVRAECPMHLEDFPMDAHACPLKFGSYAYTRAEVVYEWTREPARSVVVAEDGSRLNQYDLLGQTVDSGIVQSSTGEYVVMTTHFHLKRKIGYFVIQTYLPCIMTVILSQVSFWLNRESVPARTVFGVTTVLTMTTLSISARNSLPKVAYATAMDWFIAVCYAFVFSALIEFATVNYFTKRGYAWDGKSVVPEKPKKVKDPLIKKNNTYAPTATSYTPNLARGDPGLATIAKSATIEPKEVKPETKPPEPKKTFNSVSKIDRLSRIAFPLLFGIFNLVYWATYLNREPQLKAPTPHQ
T1 sequence (P28472 26-473 partner): as the sequence (P28472 26-473 partner) above
T1 sequence (P18507 40-475): as the sequence (P18507 40-475) above

Structure (SMILES)	% Inhibition at 1000 nM for CBZD [1]	Percentage of potentiation alpha1 [2]	Percentage of potentiation alpha2 [3]	activation at 0.1 µM [2] [%]	activation at 0.1 µM [3] [%]
Cc1ccc(-c2nc3ccc(C)cn3c2Cn2cccn2)cc1 [Compound 8, 3-((1H-pyrazol-1-yl)methyl)-6-methyl-2-p-tolylH-imidazo[1,2-a]pyridine]	++ (percentage of inhibition of central BZD site binding is greater than 80% in the presence of 1000 nM of the compound)	++ (percentage of potentiation is greater than or equal to 50% in the presence of 100 nM of the compound)	+ (percentage of potentiation is greater than or equal to 10% but less than 50% in the presence of 100 nM of the compound)	–	–
CCNCc1ccnc(NCc2c(-c3ccc(F)cc3)nc3ccc(C)cn23)n1 [Compound 196, 4-((ethylamino)methyl)-N-((2-(4-fluorophenyl)-6-methylimidazo[1,2-a]pyridin-3-yl)methyl)pyrimidin-2-amine]	++ (percentage of inhibition of central BZD site binding is greater than 80% in the presence of 1000 nM of the compound)	–	–	≥ 50	≥ 50
O=c1[nH]c(=O)n(Cc2c(-c3ccc(Cl)cc3)nc3ccccn23)cc1F [Compound 127, 1-((2-(4-chlorophenyl)imidazo[1,2-a]pyridin-3-yl)methyl)-5-fluoropyrimidine-2,4(1H,3H)-dione]	+ (percentage of inhibition of central BZD site binding is greater than 50% but less than 80% in the presence of 1000 nM of the compound)	–	–	-10 to 10	10 to 50
Cn1ncnc1Cc1c(-c2ccc(Cl)cc2)nc2ccccn12 [Compound 207, 2-(4-Chlorophenyl)-3-((1-methyl-1H-1,2,4-triazol-5-yl)methyl)imidazo[1,2-a]pyridine]	++ (percentage of inhibition of central BZD site binding is greater than 80% in the presence of 1000 nM of the compound)	–	–	10 to 50	10 to 50
Clc1ccc2nc(-c3ccccc3)c(Cn3nc4ccccc4n3)n2c1 [Compound 47, 2-((6-chloro-2-phenylH-imidazo[1,2-a]pyridin-3-yl)methyl)-2H-benzo[d][1,2,3]triazole]	+ (percentage of inhibition of central BZD site binding is greater than 50% but less than 80% in the presence of 1000 nM of the compound)	0 (percentage of potentiation is between about 10% to about −10%)	0 (percentage of potentiation is between about 10% to about −10%)	–	–
Clc1ccc(-c2nc3ccc(Cl)cn3c2Cn2ccnn2)cc1 [Compound 19, 3-((1H-1,2,3-triazol-1-yl)methyl)-6-chloro-2-(4-chlorophenyl)H-imidazo[1,2-a]pyridine]	++ (percentage of inhibition of central BZD site binding is greater than 80% in the presence of 1000 nM of the compound)	+ (percentage of potentiation is greater than or equal to 10% but less than 50% in the presence of 100 nM of the compound)	+ (percentage of potentiation is greater than or equal to 10% but less than 50% in the presence of 100 nM of the compound)	–	–
Cc1nn(C)nc1Cc1c(-c2ccc(Cl)cc2)nc2ccc(Cl)cn12 [Compound 229, 6-Chloro-2-(4-chlorophenyl)-3-((2,5-dimethyl-2H-1,2,3-triazol-4-yl)methyl)imidazo[1,2-a]pyridine]	++ (percentage of inhibition of central BZD site binding is greater than 80% in the presence of 1000 nM of the compound)	–	–	10 to 50	10 to 50
Fc1ccc2nc(-c3ccc(Cl)cc3)c(Cn3nc4ccccc4n3)n2c1 [Compound 59, 2-((2-(4-chlorophenyl)-6-fluoroH-imidazo[1,2-a]pyridin-3-yl)methyl)-2H-benzo[d][1,2,3]triazole]	+ (percentage of inhibition of central BZD site binding is greater than 50% but less than 80% in the presence of 1000 nM of the compound)	0 (percentage of potentiation is between about 10% to about −10%)	0 (percentage of potentiation is between about 10% to about −10%)	–	–
Fc1ccc(-c2nc3ccccn3c2Cn2nccn2)cc1 [Compound 49, 3-((2H-1,2,3-triazol-2-yl)methyl)-2-(4-fluorophenyl)H-imidazo[1,2-a]pyridine]	++ (percentage of inhibition of central BZD site binding is greater than 80% in the presence of 1000 nM of the compound)	0 (percentage of potentiation is between about 10% to about −10%)	+ (percentage of potentiation is greater than or equal to 10% but less than 50% in the presence of 100 nM of the compound)	–	–
CCc1nccn1Cc1c(-c2ccc(C)cc2)nc2ccc(C)cn12 [Compound 4, 3-((2-Ethyl-1H-imidazol-1-yl)methyl)-6-methyl-2-p-tolylH-imidazo[1,2-a]pyridine]	++ (percentage of inhibition of central BZD site binding is greater than 80% in the presence of 1000 nM of the compound)	+ (percentage of potentiation is greater than or equal to 10% but less than 50% in the presence of 100 nM of the compound)	0 (percentage of potentiation is between about 10% to about −10%)	–	–
Clc1ccc2nc(-c3ccccc3)c(Cn3nnc4ccccc43)n2c1 [Compound 46, 1-((6-chloro-2-phenylH-imidazo[1,2-a]pyridin-3-yl)methyl)-1H-benzo[d][1,2,3]triazole]	++ (percentage of inhibition of central BZD site binding is greater than 80% in the presence of 1000 nM of the compound)	+ (percentage of potentiation is greater than or equal to 10% but less than 50% in the presence of 100 nM of the compound)	0 (percentage of potentiation is between about 10% to about −10%)	–	–
CCOc1ccn(Cc2c(-c3ccc(Cl)cc3)nc3ccccn23)c(=O)n1 [Compound 137, 1-((2-(4-chlorophenyl)imidazo[1,2-a]pyridin-3-yl)methyl)-4-ethoxypyrimidin-2(1H)-one]	++ (percentage of inhibition of central BZD site binding is greater than 80% in the presence of 1000 nM of the compound)	–	–	10 to 50	10 to 50
